Read-outs that look alike come from different tables or passages of the source.
Key:
Experiment in all cases: NCI in vitro SRB assay, Breast Cancer
Assay type in all cases: cell-based
BT-549 = test system: BT-549
Procedure: (§1) An in vitro assay which tested the ability of N,N,-diethyl-8,8-dipropyl-2-azaspiro[4,5]decane-2-propanamine dimaleate (Compound 1) to inhibit the growth of known cancer cell lines was performed by the National Cancer Institute in accordance with standard procedures. See: Lin, Z. X., Hoult, J. R., and Raman, A. Sulphorhodamine B assay for measuring proliferation of a pigmented melanocyte cell line and its application to the evaluation of crude drugs used in the treatment of vitiligo. J Ethnopharmacol. 66: 141-150, 1999. Briefly, selected tumor cell lines were cultured in media containing five different concentrations of Compound 1. After 48 hours of continuous exposure, a sulforhodamine B (SRB) assay was used to estimate cell viability or growth via optical measurements.
(§2) From the measurements, the following values were determined: 1) the concentration of Compound 1 at which a tumor cell growth inhibition of 50% (relative to control) occurs (GI50), 2) the concentration of Compound 1 at which no growth occurs (total growth inhibition, TGI), and 3) the concentration of Compound 1 at which the […] (LC 50). […] FIG. 6 illustrates, graphically, tumor cell growth as a function of Compound 1 concentration of the scanned tumor cell lines.

HS 578T = conditions: for CC50 / GI50: Homo sapiens; for CC50: Hs-578T
Procedure: as §1, §2

MCF7 = conditions: for CC50 / GI50: Homo sapiens
Procedure: as §1, §2

MDA-MB-231/ATCC = conditions: for GI50 / CC50: Homo sapiens
Procedure: as §1, §2

MDA-MB-435 = conditions: for CC50 / GI50: Homo sapiens
Procedure: as §1, §2

NCI/ADR-RES = conditions: for GI50: Homo sapiens
Procedure: as §1, §2

T-47D = test system: T-47D
Procedure: as §1, §2

[1] = BT-549, Log10 conc -4.0 Moles/L
[2] = BT-549, Log10 conc -5.0 Moles/L
[3] = BT-549, Log10 conc -6.0 Moles/L
[4] = BT-549, Log10 conc -7.0 Moles/L
[5] = BT-549, Log10 conc -8.0 Moles/L
[6] = HS 578T, Log10 conc -4.0 Moles/L
[7] = HS 578T, Log10 conc -5.0 Moles/L
[8] = HS 578T, Log10 conc -6.0 Moles/L
[9] = HS 578T, Log10 conc -7.0 Moles/L
[10] = HS 578T, Log10 conc -8.0 Moles/L
[11] = MDA-MB-231/ATCC, Log10 conc -4.0 Moles/L
[12] = MDA-MB-231/ATCC, Log10 conc -5.0 Moles/L
[13] = MDA-MB-231/ATCC, Log10 conc -6.0 Moles/L
[14] = MDA-MB-231/ATCC, Log10 conc -7.0 Moles/L
[15] = MDA-MB-231/ATCC, Log10 conc -8.0 Moles/L
[16] = MDA-MB-435, Log10 conc -4.0 Moles/L
[17] = MDA-MB-435, Log10 conc -5.0 Moles/L
[18] = MDA-MB-435, Log10 conc -6.0 Moles/L
[19] = MDA-MB-435, Log10 conc -7.0 Moles/L
[20] = MDA-MB-435, Log10 conc -8.0 Moles/L

What does the source list for `CCCC1(CCC)CCC2(CCN(CCCN(CC)CC)C2)CC1.O=C(O)/C=C\C(=O)O.O=C(O)/C=C\C(=O)O` [Compound 1, N,N,-diethyl-8,8-dipropyl-2-azaspiro[4,5]decane-2-propanamine dimaleate]?
TGI (BT-549; BT-549): 3.23 µM; Log10 TGI (BT-549; BT-549 (so in the source)): −5.39; Mean Optical Densities (BT-549; [1]): 0.007; Percent Growth (BT-549; [1]): −98%; Mean Optical Densities (BT-549; [2]): 0.027; Percent Growth (BT-549; [2]): −94%; Mean Optical Densities (BT-549; [3]): 0.856; Percent Growth (BT-549; [3]): 98%; Mean Optical Densities (BT-549; [4]): 0.904; Percent Growth (BT-549; [4]): 109%; Mean Optical Densities (BT-549; [5]): 0.859; Percent Growth (BT-549; [5]): 98%; CC50 (BT-549; Homo sapiens, BT-549, read-out: LC50): 5.89 µM; GI50 (BT-549; Homo sapiens, BT-549, read-out: GI50): 1.77 µM; GI50 (BT-549; Homo sapiens, BT-549 (so in the source), read-out: Log10 GI50 (converted)): 1.7 µM; TGI (HS 578T; HS 578T): 3.96 µM; Log10 TGI (HS 578T; HS 578T (so in the source)): −6.09; Mean Optical Densities (HS 578T; [6]): 0.264; Percent Growth (HS 578T; [6]): −62%; Mean Optical Densities (HS 578T; [7]): 0.269; Percent Growth (HS 578T; [7]): −61%; Mean Optical Densities (HS 578T; [8]): 1.217; Percent Growth (HS 578T; [8]): 91%; Mean Optical Densities (HS 578T; [9]): 1.258; Percent Growth (HS 578T; [9]): 98%; Mean Optical Densities (HS 578T; [10]): 1.206; Percent Growth (HS 578T; [10]): 89%; CC50 (HS 578T; read-out: LC50): 8.43 µM; CC50 (HS 578T; read-out: Log10 LC50 (converted)): 6.17 µM; GI50 (HS 578T; HS 578T (so in the source), read-out: Log10 GI50 (converted)): 0.269 µM; GI50 (HS 578T; HS 578T, read-out: GI50): 1.86 µM; CC50 (MCF7; MCF7, read-out: LC50): 5.6 µM; CC50 (MCF7; MCF7, read-out: Log10 LC50 (converted)): 5.62 µM; GI50 (MCF7; MCF7, read-out: GI50): 1.33 µM; GI50 (MCF7; MCF7, read-out: Log10 GI50 (converted)): 1.32 µM; Log10 TGI (MCF7; MCF7): −5.56; TGI (MCF7; MCF7): 2.73 µM; Mean Optical Densities (MCF7; MCF7, Log10 conc -4.0 Moles/L): 0.051; Percent Growth (MCF7; MCF7, Log10 conc -4.0 Moles/L): −70%; Mean Optical Densities (MCF7; MCF7, Log10 conc -5.0 Moles/L): 0.017; Percent Growth (MCF7; MCF7, Log10 conc -5.0 Moles/L): −90%; Mean Optical Densities (MCF7; MCF7, Log10 conc -6.0 Moles/L): 0.996; Percent Growth (MCF7; MCF7, Log10 conc -6.0 Moles/L): 70%; Mean Optical Densities (MCF7; MCF7, Log10 conc -7.0 Moles/L): 1.339; Percent Growth (MCF7; MCF7, Log10 conc -7.0 Moles/L): 99%; Mean Optical Densities (MCF7; MCF7, Log10 conc -8.0 Moles/L): 1.311; Percent Growth (MCF7; MCF7, Log10 conc -8.0 Moles/L): 96%; GI50 (MDA-MB-231/ATCC; MDA-MB-231, MDA-MB-231/ATCC, read-out: GI50): 1.09 µM; GI50 (MDA-MB-231/ATCC; MDA-MB-231, line printed "231/ATCC" (second line of the wrapped name), read-out: Log10 GI50 (converted)): 1.86 µM; GI50 (MDA-MB-231/ATCC; MDA-MB-231, line printed "MDA-MB-" (first line of MDA-MB-231/ATCC), read-out: Log10 GI50 (converted)): 1.1 µM; CC50 (MDA-MB-231/ATCC; MDA-MB-231, read-out: LC50, MDA-MB-231/ATCC): 5.18 µM; CC50 (MDA-MB-231/ATCC; MDA-MB-231, read-out: Log10 LC50, line printed "231/ATCC" (second line of the wrapped name) (converted)): 8.51 µM; CC50 (MDA-MB-231/ATCC; MDA-MB-231, read-out: Log10 LC50, line printed "MDA-MB-" (first line of MDA-MB-231/ATCC) (converted)): 5.13 µM; TGI (MDA-MB-231/ATCC; MDA-MB-231/ATCC): 2.37 µM; Mean Optical Densities (MDA-MB-231/ATCC; [11]): 0.038; Percent Growth (MDA-MB-231/ATCC; [11]): −94%; Mean Optical Densities (MDA-MB-231/ATCC; [12]): 0.053; Percent Growth (MDA-MB-231/ATCC; [12]): −92%; Mean Optical Densities (MDA-MB-231/ATCC; [13]): 0.839; Percent Growth (MDA-MB-231/ATCC; [13]): 55%; Mean Optical Densities (MDA-MB-231/ATCC; [14]): 0.863; Percent Growth (MDA-MB-231/ATCC; [14]): 63%; Mean Optical Densities (MDA-MB-231/ATCC; [15]): 0.897; Percent Growth (MDA-MB-231/ATCC; [15]): 75%; Log10 TGI (MDA-MB-231/ATCC; line printed "231/ATCC" (second line of the wrapped name)): −5.40; Log10 TGI (MDA-MB-231/ATCC; line printed "MDA-MB-" (first line of MDA-MB-231/ATCC)): −5.63; CC50 (MDA-MB-435; MDA-MB-435, read-out: LC50): 6.19 µM; CC50 (MDA-MB-435; MDA-MB-435, read-out: Log10 LC50 (converted)): 5.89 µM; GI50 (MDA-MB-435; MDA-MB-435, read-out: GI50): 0.267 µM; GI50 (MDA-MB-435; MDA-MB-435 (so in the source), read-out: Log10 GI50 (converted)): 1.78 µM; TGI (MDA-MB-435; MDA-MB-435): 0.807 µM; Log10 TGI (MDA-MB-435; MDA-MB-435 (so in the source)): −5.49; Mean Optical Densities (MDA-MB-435; [16]): 0.244; Percent Growth (MDA-MB-435; [16]): −58%; Mean Optical Densities (MDA-MB-435; [17]): 0.230; Percent Growth (MDA-MB-435; [17]): −61%; Mean Optical Densities (MDA-MB-435; [18]): 0.528; Percent Growth (MDA-MB-435; [18]): −10%; Mean Optical Densities (MDA-MB-435; [19]): 1.517; Percent Growth (MDA-MB-435; [19]): 94%; Mean Optical Densities (MDA-MB-435; [20]): 1.613; Percent Growth (MDA-MB-435; [20]): 104%; Log10 TGI (NCI/ADR-RES): −5.40; TGI (NCI/ADR-RES): 3.95 µM; GI50 (NCI/ADR-RES; read-out: GI50): 1.83 µM; GI50 (NCI/ADR-RES; read-out: Log10 GI50 (converted)): 1.82 µM; Mean Optical Densities (NCI/ADR-RES; Log10 conc -4.0 Moles/L): 0.081; Percent Growth (NCI/ADR-RES; Log10 conc -4.0 Moles/L): −85%; Mean Optical Densities (NCI/ADR-RES; Log10 conc -5.0 Moles/L): 0.208; Percent Growth (NCI/ADR-RES; Log10 conc -5.0 Moles/L): −61%; Mean Optical Densities (NCI/ADR-RES; Log10 conc -6.0 Moles/L): 1.220; Percent Growth (NCI/ADR-RES; Log10 conc -6.0 Moles/L): 89%; Mean Optical Densities (NCI/ADR-RES; Log10 conc -7.0 Moles/L): 1.227; Percent Growth (NCI/ADR-RES; Log10 conc -7.0 Moles/L): 90%; Mean Optical Densities (NCI/ADR-RES; Log10 conc -8.0 Moles/L): 1.254; Percent Growth (NCI/ADR-RES; Log10 conc -8.0 Moles/L): 94%; TGI (T-47D): 4.11 µM; GI50 (T-47D; Homo sapiens, T47D): 1.71 µM; Mean Optical Densities (T-47D; Log10 conc -4.0 Moles/L): 0.207; Percent Growth (T-47D; Log10 conc -4.0 Moles/L): −38%; Mean Optical Densities (T-47D; Log10 conc -5.0 Moles/L): 0.164; Percent Growth (T-47D; Log10 conc -5.0 Moles/L): −51%; Mean Optical Densities (T-47D; Log10 conc -6.0 Moles/L): 1.024; Percent Growth (T-47D; Log10 conc -6.0 Moles/L): 81%; Mean Optical Densities (T-47D; Log10 conc -7.0 Moles/L): 1.176; Percent Growth (T-47D; Log10 conc -7.0 Moles/L): 98%; Mean Optical Densities (T-47D; Log10 conc -8.0 Moles/L): 0.837; Percent Growth (T-47D; Log10 conc -8.0 Moles/L): 59%

Source: patent US20050250801A1, “Method of treating cancer with azaspirane compositions” (priority 2003, published 2005)
